US9296687B2, “Modulators of HSP70/DnaK function and methods of use thereof” (The Trustees of the University of Pennsylvania, priority 2008, dated 2016)
Entries after “also recorded” stand apart in the source; their conditions may differ.

Assays:
Eμ-Myc transgenic mice = experiment: Eμ-Myc mouse model of lymphomagenesis; type: in vivo; conditions: 20 mg/kg weekly i.p. from 6 weeks of age
Description: To evaluate the efficacy of PES as a chemopreventative agent, Eμ-Myc transgenic mice were injected every 5 days, starting at 8 weeks of age, with either vehicle or PES (40 mg/kg) prepared in PBS. All animals received a total of 7 injections, either with PES or vehicle. Consequently, no injection was given after day 86. All mice were observed daily for signs of morbidity and the development of lymphoma. All experiments with mice were approved by, and conformed to, the guidelines of the Institutional Animal Care and Use Committee of the Fox Chase Cancer Center. These mice may also be used to advantage to test the beneficial therapeutic combinations of agents and/or treatments described herein.
Beginning at 6 weeks of age, Eμ-myc transgenic mice were treated either with vehicle, 20 mg/kg PES or 20 mg/kg PES-Cl with weekly i.p. injections of tested compound (FIG. 27).

[1] = system: SKBR3 human breast adenocarcinoma cells; experiment: MTT assay; type: cell-based; conditions: various concentrations, 72 hours
Description: SKBR3 human breast adenocarcinoma cells were seeded and treated with PES and PES-Cl at various concentrations.

H1299 and FaDu cells = experiment: Western blot of autophagy and apoptosis markers; type: cell-based, human; conditions: 10 μM, 24, 48 and 72 hours
Description: Tumorogenic cells H1299 and FaDu cells were seeded in 10 cm plates and were treated with 10 μM PES or 10 μM PES-Cl. DMSO treated cells were used as a vehicle treated control. Twenty-four, 48 and 72 hours post-treatment the cells were scrapped and protein extracts were generated. Western blotting was performed as described hereinabove. The antibodies used in the protocol were p62 (Santa Cruz), Hsp70 (Cell Signaling), cleaved lamin A (Cell Signaling), Hsp40 (Cell Signaling), γH2A.X (Millipore), and actin (Sigma).

FADU cells = experiment: Guava Nexin assay (Annexin V / 7-AAD); type: cell-based, human; conditions: 10 μM, 24, 48 and 72 hours
Description: (§1) The effect of PES-Cl on apoptosis was observed using Guana Nexin Reagent (Millipore) in H1299 and FaDu cells. The Guana Nexin Assay utilizes Annexin V-PE to detect phosphatidylserine (PS) on the external membrane of apoptotic cells. The cell impermeant dye, 7-AAD, is also used in the Guava Nexin Assay as an indicator of cell membrane structural integrity. 7-AAD is excluded from live, healthy cells as wells as early apoptotic cells. Three populations of cells can be distinguished in the assay: Non-Apoptotic cells (Annexin V(−) and 7-AAD(−)), Early Apoptotic cells (Annexin V(+) and 7-AAD(−)), and Late Stage Apoptotic and dead cells (Annexin V(+) and 7-AAD(+)). The H1299 and FaDu cells were seeded on 24-well plates and treated with 10 μM PES or 10 μM PES-Cl. DMSO treated cells were used as a vehicle control. Four, 24 and 48 hours post-treatment, the H1299 cells were washed with PBS and trypsinized. For FaDu cells, the time course was 24, 48 and 72 hours. The cells were pelleted and resuspended in Guava Nexin reagent as per the manufacturer instructions and the readings were obtained with a Guava reader (Guava Technologies, Millipore). The total number of cells that were in Late Stage Apoptosis or dead (by necrotic or apoptotic mechanisms) was analyzed in density plots to determine as Annexin V positive.

H1299 cells [2] = experiment: Guava Nexin assay (Annexin V / 7-AAD); type: cell-based, human; conditions: 10 μM, 4, 24 and 48 hours
Description: as §1

[3] = system: H1299 and FaDu; 6113 and WI38; experiment: MTT assay, tumorogenic versus normal fibroblast cell lines; type: cell-based, human; conditions: various concentrations, 48 hours
Description: (§2) H1299 cells were seeded on […] and treated with 10 μM PES or 10 μM PES-Cl. DMSO treated cells were used as a control and the proliferation of the H1299 cells was observed over 24 and 48 hours of treatment. The cells were imaged by light microscopy with 20× magnification (FIG. 28). Non-tumorogenic and tumorogenic cells were then treated with PES-Cl to observe its toxicity and effect on proliferation. Two tumorogenic cell lines (H1299 and FaDu) and two normal fibroblast cell lines (6113 and WI38) were seeded on a 96-well plate. The cells were treated with various concentrations of PES and PES-Cl. Forty-eight hours post-treatment MTT assays (Cayman Chemical Company) were performed (FIG. 29).

Scc56 cell line = experiment: MTT cell viability assay, PES-Cl with Temsirolimus; type: cell-based, human; conditions: singly and together, varying concentrations
Description: PES-Cl was tested in combination with Temsirolimus, an mTOR inhibitor, to determine whether they act synergistically to kill cells. Head and neck cancer cells of the Scc56 cell line were treated with PES-Cl and Temsirolimus, singly and together, at varying concentrations utilizing an MTT assay.

HSP70 = HSP70 (Homo sapiens, UniProt P0DMV8); experiment: Capture of HA-tagged HSP70 constructs from transfected H1299 cells with biotinylated compound; type: binding; design: expressed in transfected cells; host or cells: H1299; conditions: biotinylated compound, 6 hours
Chain of HSP70 (P0DMV8 2-641): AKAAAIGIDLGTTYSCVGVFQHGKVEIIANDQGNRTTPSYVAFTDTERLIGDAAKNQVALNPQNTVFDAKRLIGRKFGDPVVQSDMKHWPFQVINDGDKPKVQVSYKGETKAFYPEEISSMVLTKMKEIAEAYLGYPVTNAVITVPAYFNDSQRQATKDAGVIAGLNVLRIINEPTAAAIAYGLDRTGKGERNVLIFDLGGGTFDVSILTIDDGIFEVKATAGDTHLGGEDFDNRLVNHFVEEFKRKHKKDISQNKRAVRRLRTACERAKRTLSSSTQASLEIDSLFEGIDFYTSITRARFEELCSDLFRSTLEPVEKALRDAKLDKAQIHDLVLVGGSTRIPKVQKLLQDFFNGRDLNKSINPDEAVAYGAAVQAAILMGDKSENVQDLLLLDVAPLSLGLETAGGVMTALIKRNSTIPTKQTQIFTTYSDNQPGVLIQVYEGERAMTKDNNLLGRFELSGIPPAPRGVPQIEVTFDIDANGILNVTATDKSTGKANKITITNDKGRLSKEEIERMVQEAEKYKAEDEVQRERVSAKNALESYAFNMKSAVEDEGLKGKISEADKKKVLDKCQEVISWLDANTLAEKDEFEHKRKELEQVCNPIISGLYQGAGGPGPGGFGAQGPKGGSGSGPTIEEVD
Description: FIG. 1. PES Binds to HSP70. (A) Whole cell extracts (WCE) prepared from A875 and BCL-xL over-expressing U2OS human osteosarcoma cells (BX-U2OS) cells, treated with Biotin or Biotin-PES (B-PES), were captured using NeutrAvidin agarose resins. HSP70-family proteins were identified as the major product in the excised band of ˜70 kDa shown in both Coomassie gels. (B and C) WCE were prepared from the cell lines indicated following 24 h treatment with 20 μM Biotin or B-PES and examined for the expression of proteins indicated (left panel of B and C) by western blot analysis; note that different exposure times were used to visualize these proteins. […] (D) In vitro evidence for an interaction between B-PES and HSP70. Full-length human HSP70 and human HSP90 proteins were in vitro translated in the presence of ^35S-methionine, mixed with B-PES coupled to NeutrAvidin resins, and eluted using 100 mM DTT. The resulting DTT eluates were separated by polyacrylamide gel electrophoresis (SDS-PAGE) and visualized by autoradiography. (E) B-PES interacts with the C-terminal region of HSP70. H1299 cells were transfected with the indicated hemagglutinin (HA)-tagged constructs and exposed to B-PES. B-PES containing complexes were captured by NeutrAvidin Resins, eluted following 100 mM DTT treatment, and immunoblotted with anti-HA antibody following SDS-PAGE. (F) Non-transformed human IMR90 fibroblasts or H1299 lung carcinoma cells were treated with the indicated concentrations of PES for 24 h and cell viability was determined by MTT assays. (G) WCE were prepared from the cell lines indicated following 5 hr treatment with 20 μM PES or B-PES and examined for the expression of proteins indicated (left panel) by western blot analysis; note that different exposure times were used to visualize these proteins. B-PES-containing complexes were captured by NeutrAvidin resins, eluted following 50 mM DTT treatment, and immunoblotted using the indicated antibodies.
The free amide group of PES-Cl was biotinylated and added to HA-tagged HSP70-transfected H1299 cells. The treatment of the cells occurred for 6 hours. The complexes were pulled down with NeutrAvidin beads, eluted with 100 mM DTT treatments, separated with SDS-PAGE and detected with anti-HA antibody (Millipore) by Western blot.
Docking studies were performed using the C-terminal HSP70 crystal structure (FIG. 32) to elucidate the PES binding site in silico (FIG. 33). Blind docking methods were used in the program AutoDock to locate potential PES binding sites. These methods use a course grid docking approach, encompassing the entire protein, to identify favorable binding sites using a known binding ligand, and are examined by hand to support the AutoDock data. […]

H1299 cells [4] = experiment: Proliferation observed by light microscopy; type: cell-based, human; conditions: 10 μM, 24 and 48 hours
Description: as §2

NS(=O)(=O)C#Cc1cccc(Cl)c1 [PES-Cl, 2-(3-chlorophenyl)-ethynesulfonamide]
survival (Eμ-Myc transgenic mice): extended survival | cytotoxicity compared to PES [1]: superior cytotoxic agent when compared to PES | apoptosis (H1299 and FaDu cells): induced apoptosis | autophagy (H1299 and FaDu cells): inhibited autophagy | apoptosis and cell death (Annexin V positive cells) (FADU cells): induced apoptosis and cell death; also recorded: superior compound for induction of apoptosis | apoptosis and cell death (Annexin V positive cells) (H1299 cells [2]): induced apoptosis and cell death; also recorded: superior compound for induction of apoptosis | cell survival, tumorogenic versus non-tumorogenic cells [3]: greater concentration dependent effect on cell survival in tumorogenic cells; also recorded: superior and specific inhibitor of proliferation of tumor cells with limited toxicity to normal cells | combination effect with Temsirolimus (Scc56 cell line): synergistic effect resulting in enhanced dose-dependent cytotoxicity | interaction with HA-tagged HSP70 (HSP70): interact with HSP70 | proliferation (H1299 cells [4]): inhibits the proliferation of H1299 cells
